Biological target: T1, human Y4 receptor (Homo sapiens, UniProt P50391)
T1 construct: expressed in transfected cells
Experiment: NPY4 cAMP HTRF Agonist Assay (inhibitory cAMP assay, Gi activation by Y4 agonism)
Assay type: cell-based
Conditions: human Y4 stable CHO clonal cells, forskolin + IBMX; read-out: NPY4 cAMP HTRF Agonist Assay EC50
Protocol: NPY4 cAMP HTRF Agonist Assay
The functionality of the compound at Y4 receptor was analyzed using a inhibitory cAMP assay (CISBIO, HTRF cAMP kit #62AM4PEC) to measure the Gi activation by Y4 agonism.
The human Y4 stable CHO clonal cells were maintained in culture medium (F-12 containing 10% Fetal Bovine Serum, […] GENETICIN®, […] Zeocin). Before the experiment, 5 μL of 1 uM Forskolin (Sigma, # F6886) and 100 uM IBMX (Sigma, # I5879) in PBS buffer were added into 384-well plates (PE, Proxi-plate) that were pre-dotted with 100 nL compounds. The cells were removed from the flasks by Cellstripper, counted and adjusted to 1.0×10^6 cells/mL in PBS buffer, and added 5 μL/well (5000 cells/well) into the above 384-well plates. The cells were then covered and incubated for 30 minutes at room temperature. After incubation, 5 μL/well of D2-conjugate in HTRF lysis buffer was first added, followed by adding 5 μL/well of anti-cAMP Cryptate in HTRF lysis buffer. The plates were incubated for another 1 hour at room temperature and read on the EnVision Multilabel Plate Reader.
Compounds described herein were tested in the above assay.

T1 sequence (P50391 whole entry): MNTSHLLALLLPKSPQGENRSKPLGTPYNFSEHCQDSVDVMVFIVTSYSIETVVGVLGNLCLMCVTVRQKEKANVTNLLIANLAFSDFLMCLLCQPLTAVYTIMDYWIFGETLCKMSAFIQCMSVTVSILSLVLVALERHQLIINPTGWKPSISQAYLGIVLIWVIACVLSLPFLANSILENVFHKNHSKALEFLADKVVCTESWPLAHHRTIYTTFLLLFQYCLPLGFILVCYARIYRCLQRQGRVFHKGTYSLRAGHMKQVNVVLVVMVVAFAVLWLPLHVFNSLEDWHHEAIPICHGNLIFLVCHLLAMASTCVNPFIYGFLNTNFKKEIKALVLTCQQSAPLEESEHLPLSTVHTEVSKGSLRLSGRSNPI

## O=[N+]([O-])c1ccc(N2CCC[C@H](N[C@@H]3CCCC[C@H]3Nc3ncc(-c4ccc(OC(F)(F)F)cc4)o3)C2)cc1 [Example 1, (1R,2R)—N1-((S)-1-(4-Nitrophenyl)piperidin-3-yl)-N2-(5-(4-(trifluoromethoxy)phenyl)oxazol-2-yl)cyclohexane-1,2-diamine]
  EC50: 6 nM

## O=[N+]([O-])c1ccc(N2CCC[C@H](N[C@@H]3CCCC[C@H]3Nc3ncc(-c4ccccc4)o3)C2)cc1 [Example 2, (1R,2R)—N1-((S)-1-(4-Nitrophenyl)piperidin-3-yl)-N2-(5-phenyloxazol-2-yl)cyclohexane-1,2-diamine]
  EC50: 3 nM

## O=[N+]([O-])c1ccc(N2CCC[C@H](N[C@@H]3CCCC[C@H]3Nc3nc4ccccc4o3)C2)cc1 [Example 3, (1R,2R)—N1-(Benzo[d]oxazol-2-yl)-N2-((S)-1-(4-nitrophenyl)piperidin-3-yl)cyclohexane-1,2-diamine]
  EC50: 69 nM

## O=[N+]([O-])c1ccc(N2CCC[C@H](N[C@@H]3CCCC[C@H]3Nc3nc4cc(OC(F)(F)F)ccc4o3)C2)cc1 [Example 4, (1R,2R)—N1-((S)-1-(4-Nitrophenyl)piperidin-3-yl)-N2-(5-(trifluoromethoxy)benzo[d]oxazol-2-yl)cyclohexane-1,2-diamine]
  EC50: 236 nM

## O=[N+]([O-])c1ccc(N2C[C@@H]3C[C@H](N[C@@H]4CCCC[C@H]4Nc4ncc(-c5ccc(OC(F)(F)F)cc5)o4)[C@H]2C3)cc1 [Example 5, (1R,2R)—N1-((1R,4R,6S)-2-(4-Nitrophenyl)-2-azabicyclo[2.2.1]heptan-6-yl)-N2-(5-(4-(trifluoromethoxy)phenyl)oxazol-2-yl)cyclohexane-1,2-diamine]
  EC50: 9 nM

## O=[N+]([O-])c1ccc(N2C[C@@H]3C[C@H](N[C@@H]4CCCC[C@H]4Nc4ncc(-c5ccccc5)o4)[C@H]2C3)cc1 [Example 6, (1R,2R)—N1-((1R,4R,6S)-2-(4-Nitrophenyl)-2-azabicyclo[2.2.1]heptan-6-yl)-N2-(5-phenyloxazol-2-yl)cyclohexane-1,2-diamine]
  EC50: 6 nM

## O=[N+]([O-])c1ccc(N2CCC[C@H](N[C@@H]3CCCC[C@H]3Nc3ncc(-c4ccc(C(F)(F)F)cc4)o3)C2)cc1 [Example 7, (1R,2R)—N1-((S)-1-(4-Nitrophenyl)piperidin-3-yl)-N2-(5-(4-(trifluoromethyl)phenyl)oxazol-2-yl)cyclohexane-1,2-diamine]
  EC50: 185 nM

## O=[N+]([O-])c1ccc(N2CCC[C@H](N[C@@H]3CCCC[C@H]3Nc3ncc(-c4ccc(OC(F)(F)F)c(F)c4)o3)C2)cc1 [Example 8, (1R,2R)—N1-(5-(3-Fluoro-4-(trifluoromethoxy)phenyl)oxazol-2-yl)-N2-((S)-1-(4-nitrophenyl)piperidin-3-yl)cyclohexane-1,2-diamine]
  EC50: 16 nM

## O=[N+]([O-])c1ccc(N2CCC[C@H](N[C@@H]3CCCC[C@H]3Nc3ncc(-c4ccccc4F)o3)C2)cc1 [Example 9, (1R,2R)—N1-(5-(2-Fluorophenyl)oxazol-2-yl)-N2-((S)-1-(4-nitrophenyl)piperidin-3-yl)cyclohexane-1,2-diamine]
  EC50: 4 nM

## O=[N+]([O-])c1ccc(N2CCC[C@H](N[C@@H]3CCCC[C@H]3Nc3ncc(-c4ccc(F)c(F)c4)o3)C2)cc1 [Example 10, (1R,2R)—N1-(5-(3,4-Difluorophenyl)oxazol-2-yl)-N2-((S)-1-(4-nitrophenyl)piperidin-3-yl)cyclohexane-1,2-diamine]
  EC50: 26 nM

## Cc1cc(OC(F)(F)F)ccc1-c1cnc(N[C@@H]2CCCC[C@H]2N[C@H]2CCCN(c3ccc([N+](=O)[O-])cc3)C2)o1 [Example 11, (1R,2R)—N1-(5-(2-Methyl-4-(trifluoromethoxy)phenyl)oxazol-2-yl)-N2-((S)-1-(4-nitrophenyl)piperidin-3-yl)cyclohexane-1,2-diamine]
  EC50: 49 nM

## O=[N+]([O-])c1ccc(N2CCC[C@H](N[C@@H]3CCCC[C@H]3Nc3ncc(-c4ccc(O)cc4)o3)C2)cc1 [Example 12, 4-(2-((1R,2R)-2-((S)-1-(4-Nitrophenyl)piperidin-3-ylamino)cyclohexylamino)oxazol-5-yl)phenol]
  EC50: 1 nM

## O=[N+]([O-])c1ccc(N2CCC[C@H](N[C@@H]3CCCC[C@H]3Nc3ncc(-c4ccc(OC(F)F)cc4)o3)C2)cc1 [Example 13, (1R,2R)—N1-(5-(4-(Difluoromethoxy)phenyl)oxazol-2-yl)-N2-((S)-1-(4-nitrophenyl)piperidin-3-yl)cyclohexane-1,2-diamine]
  EC50: 3 nM

## CC(C)(C)Oc1ccc(-c2cnc(N[C@@H]3CCCC[C@H]3N[C@H]3CCCN(c4ccc([N+](=O)[O-])cc4)C3)o2)cc1 [Example 14, (1R,2R)—N1-(5-(4-tert-Butoxyphenyl)oxazol-2-yl)-N2-((S)-1-(4-nitrophenyl)piperidin-3-yl)cyclohexane-1,2-diamine]
  EC50: 920 nM

## O=[N+]([O-])c1ccc(N2C[C@@H]3C[C@H](N[C@@H]4CCCC[C@H]4Nc4ncc(-c5ccccc5F)o4)[C@H]2C3)cc1 [Example 15, (1R,2R)—N1-(5-(2-Fluorophenyl)oxazol-2-yl)-N2-((1R,4R,6S)-2-(4-nitrophenyl)-2-azabicyclo[2.2.1]heptan-6-yl)cyclohexane-1,2-diamine]
  EC50: 8 nM

## O=[N+]([O-])c1ccc(N2C[C@@H]3C[C@H](N[C@@H]4CCCC[C@H]4Nc4ncc(-c5ccc(O)cc5)o4)[C@H]2C3)cc1 [Example 16, 4-(2-((1R,2R)-2-((1R,4R,6S)-2-(4-Nitrophenyl)-2-azabicyclo[2.2.1]heptan-6-ylamino)cyclohexylamino)oxazol-5-yl)phenol]
  EC50: 6 nM

## O=[N+]([O-])c1ccc(N2CC3CCC2[C@@H](N[C@@H]2CCCC[C@H]2Nc2ncc(-c4ccc(OC(F)(F)F)cc4)o2)C3)cc1 (stereo partly drawn) [Example 17, (1R,2R)—N1-((6S)-2-(4-Nitrophenyl)-2-azabicyclo[2.2.2]octan-6-yl)-N2-(5-(4-(trifluoromethoxy)phenyl)oxazol-2-yl)cyclohexane-1,2-diamine]
  EC50: 911 nM

## O=[N+]([O-])c1ccc(N2CCC[C@H](N[C@@H]3CCCC[C@H]3Nc3ncc(-c4ccc(F)cc4)o3)C2)cc1 [Example 18, (1R,2R)—N1-(5-(4-Fluorophenyl)oxazol-2-yl)-N2-((S)-1-(4-nitrophenyl)piperidin-3-yl)cyclohexane-1,2-diamine]
  EC50: 7 nM

## O=[N+]([O-])c1ccc(N2CCC[C@H](N[C@@H]3CCCC[C@H]3Nc3ncc(-c4cccc(F)c4)o3)C2)cc1 [Example 19, (1R,2R)—N1-(5-(3-Fluorophenyl)oxazol-2-yl)-N2-((S)-1-(4-nitrophenyl)piperidin-3-yl)cyclohexane-1,2-diamine]
  EC50: 23 nM

## O=[N+]([O-])c1ccc(N2CCC[C@H](N[C@@H]3CCCC[C@H]3Nc3ncc(-c4ccc(F)cc4F)o3)C2)cc1 [Example 20, (1R,2R)—N1-(5-(2,4-Difluorophenyl)oxazol-2-yl)-N2-((S)-1-(4-nitrophenyl)piperidin-3-yl)cyclohexane-1,2-diamine]
  EC50: 10 nM

## COc1ccc(-c2cnc(N[C@@H]3CCCC[C@H]3N[C@H]3CCCN(c4ccc([N+](=O)[O-])cc4)C3)o2)c(F)c1 [Example 21, (1R,2R)—N1-(5-(2-fluoro-4-methoxyphenyl)oxazol-2-yl)-N2-((S)-1-(4-nitrophenyl)piperidin-3-yl)cyclohexane-1,2-diamine]
  EC50: 11 nM
